# Assay results reported in PubChem BioAssay (NCI).
#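 Test compounds were applied to cells in 96-well plates for 48 hours at 5 doses. TGI marks complete inhibition of growth.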
# Experiments:
# Experiment in all cases: DTP human tumour cell line panel, 48 h
# SF-539 CNS = system: SF-539 CNS
# OVCAR-4 ovarian = system: OVCAR-4 ovarian
# HOP-62 NSCLC = system: HOP-62 NSCLC
# NCI-H522 lung = system: NCI-H522 lung
# OVCAR-5 ovarian = system: OVCAR-5 ovarian
# OVCAR-3 ovarian = system: OVCAR-3 ovarian
# ACHN renal = system: ACHN renal
# MDA-MB-435 = system: MDA-MB-435
# COLO 205 colon = system: COLO 205 colon
# HCT-116 colon = system: HCT-116 colon
# RPMI-8226 leukemia = system: RPMI-8226 leukemia
# UO-31 renal = system: UO-31 renal
# SR leukemia = system: SR leukemia
# SK-MEL-5 melanoma = system: SK-MEL-5 melanoma
# DU-145 prostate = system: DU-145 prostate
# HCT-15 colon = system: HCT-15 colon
# A549 NSCLC = system: A549 NSCLC
# NCI/ADR-RES ovarian = system: NCI/ADR-RES ovarian
# K-562 leukemia = system: K-562 leukemia
# IGROV1 ovarian = system: IGROV1 ovarian
# MDA-MB-231 breast = system: MDA-MB-231 breast
# HT29 colon = system: HT29 colon
# EKVX NSCLC = system: EKVX NSCLC
# SNB-19 CNS = system: SNB-19 CNS
# TK-10 renal = system: TK-10 renal
# HCC-2998 colon = system: HCC-2998 colon
# SK-MEL-28 melanoma = system: SK-MEL-28 melanoma
# OVCAR-8 ovarian = system: OVCAR-8 ovarian
# SF-268 CNS = system: SF-268 CNS
# CAKI-1 renal = system: CAKI-1 renal
# HL-60(TB) leukemia = system: HL-60(TB) leukemia
# MOLT-4 leukemia = system: MOLT-4 leukemia
# MDA-N = system: MDA-N
# KM12 colon = system: KM12 colon
# UACC-62 melanoma = system: UACC-62 melanoma
# NCI-H23 lung = system: NCI-H23 lung
# HOP-92 NSCLC = system: HOP-92 NSCLC
# U251 CNS = system: U251 CNS
# MALME-3M melanoma = system: MALME-3M melanoma
# HS 578T breast = system: HS 578T breast
# SK-MEL-2 melanoma = system: SK-MEL-2 melanoma
# SK-OV-3 ovarian = system: SK-OV-3 ovarian
# T-47D breast = system: T-47D breast
# MCF7 breast = system: MCF7 breast
# 786-0 renal = system: 786-0 renal
# BT-549 breast = system: BT-549 breast
# SNB-75 CNS = system: SNB-75 CNS
# M14 melanoma = system: M14 melanoma
# SN12C renal = system: SN12C renal
# NCI-H460 lung = system: NCI-H460 lung
# SF-295 CNS = system: SF-295 CNS
# PC-3 prostate = system: PC-3 prostate
# A498 renal = system: A498 renal
# SW-620 colon = system: SW-620 colon
# UACC-257 melanoma = system: UACC-257 melanoma
# LOX IMVI melanoma = system: LOX IMVI melanoma
# NCI-H226 lung = system: NCI-H226 lung
# CCRF-CEM leukemia = system: CCRF-CEM leukemia
structure (smiles),measurement,setting,value
CCOC(=O)c1nc2ccccc2nc1Nc1ccc(Cl)c(Cl)c1,TGI,SF-539 CNS,> 100 µM
same,TGI,OVCAR-4 ovarian,> 100 µM
same,TGI,HOP-62 NSCLC,63 µM
same,TGI,NCI-H522 lung,> 100 µM
same,TGI,OVCAR-5 ovarian,> 100 µM
same,TGI,OVCAR-3 ovarian,> 100 µM
same,TGI,ACHN renal,> 100 µM
same,TGI,MDA-MB-435,> 100 µM
same,TGI,COLO 205 colon,> 100 µM
same,TGI,HCT-116 colon,> 100 µM
same,TGI,RPMI-8226 leukemia,> 100 µM
same,TGI,UO-31 renal,> 100 µM
same,TGI,SR leukemia,> 100 µM
same,TGI,SK-MEL-5 melanoma,65.5 µM
same,TGI,DU-145 prostate,> 100 µM
same,TGI,HCT-15 colon,> 100 µM
same,TGI,A549 NSCLC,> 100 µM
same,TGI,NCI/ADR-RES ovarian,> 100 µM
same,TGI,K-562 leukemia,> 100 µM
same,TGI,IGROV1 ovarian,> 100 µM
same,TGI,MDA-MB-231 breast,> 100 µM
same,TGI,HT29 colon,> 100 µM
same,TGI,EKVX NSCLC,> 100 µM
same,TGI,SNB-19 CNS,> 100 µM
same,TGI,TK-10 renal,> 100 µM
same,TGI,HCC-2998 colon,> 100 µM
same,TGI,SK-MEL-28 melanoma,> 100 µM
same,TGI,OVCAR-8 ovarian,> 100 µM
same,TGI,SF-268 CNS,> 100 µM
same,TGI,CAKI-1 renal,70.9 µM
same,TGI,HL-60(TB) leukemia,> 100 µM
same,TGI,MOLT-4 leukemia,> 100 µM
same,TGI,MDA-N,> 100 µM
same,TGI,KM12 colon,> 100 µM
same,TGI,UACC-62 melanoma,83.2 µM
same,TGI,NCI-H23 lung,> 100 µM
same,TGI,HOP-92 NSCLC,44.5 µM
same,TGI,U251 CNS,> 100 µM
same,TGI,MALME-3M melanoma,93.9 µM
same,TGI,HS 578T breast,> 100 µM
same,TGI,SK-MEL-2 melanoma,> 100 µM
same,TGI,SK-OV-3 ovarian,47.1 µM
same,TGI,T-47D breast,> 100 µM
same,TGI,MCF7 breast,> 100 µM
same,TGI,786-0 renal,> 100 µM
same,TGI,BT-549 breast,49.5 µM
same,TGI,SNB-75 CNS,68.4 µM
same,TGI,M14 melanoma,> 100 µM
same,TGI,SN12C renal,> 100 µM
same,TGI,NCI-H460 lung,> 100 µM
CCOc1cc(C(c2c(O)c3ccccc3oc2=O)c2c(O)c3ccccc3oc2=O)ccc1OC,TGI,SF-539 CNS,42.6 µM
same,TGI,OVCAR-4 ovarian,34.1 µM
same,TGI,HOP-62 NSCLC,39.9 µM
same,TGI,NCI-H522 lung,36.3 µM
same,TGI,OVCAR-5 ovarian,40.1 µM
same,TGI,OVCAR-3 ovarian,33.3 µM
same,TGI,ACHN renal,31.9 µM
same,TGI,MDA-MB-435,32 µM
same,TGI,COLO 205 colon,36.4 µM
same,TGI,HCT-116 colon,37.9 µM
same,TGI,RPMI-8226 leukemia,89.9 µM
same,TGI,UO-31 renal,45.8 µM
same,TGI,SR leukemia,> 100 µM
same,TGI,SF-295 CNS,41.7 µM
same,TGI,SK-MEL-5 melanoma,44.6 µM
same,TGI,DU-145 prostate,37.6 µM
same,TGI,HCT-15 colon,47.6 µM
same,TGI,A549 NSCLC,> 100 µM
same,TGI,NCI/ADR-RES ovarian,73.3 µM
same,TGI,PC-3 prostate,33.3 µM
same,TGI,K-562 leukemia,> 100 µM
same,TGI,IGROV1 ovarian,32.7 µM
same,TGI,MDA-MB-231 breast,31.9 µM
same,TGI,HT29 colon,65.9 µM
same,TGI,EKVX NSCLC,44.3 µM
same,TGI,SNB-19 CNS,61.8 µM
same,TGI,TK-10 renal,32.1 µM
same,TGI,SK-MEL-28 melanoma,72.2 µM
same,TGI,A498 renal,38.9 µM
same,TGI,SW-620 colon,> 100 µM
same,TGI,OVCAR-8 ovarian,42.4 µM
same,TGI,SF-268 CNS,38.8 µM
same,TGI,CAKI-1 renal,30.5 µM
same,TGI,HL-60(TB) leukemia,52.4 µM
same,TGI,MOLT-4 leukemia,98.9 µM
same,TGI,UACC-257 melanoma,34.6 µM
same,TGI,MDA-N,36.6 µM
same,TGI,KM12 colon,36.5 µM
same,TGI,UACC-62 melanoma,33.2 µM
same,TGI,NCI-H23 lung,52.6 µM
same,TGI,HOP-92 NSCLC,32.8 µM
same,TGI,U251 CNS,29.5 µM
same,TGI,MALME-3M melanoma,34.8 µM
same,TGI,HS 578T breast,77.5 µM
same,TGI,SK-MEL-2 melanoma,42.2 µM
same,TGI,SK-OV-3 ovarian,32.9 µM
same,TGI,T-47D breast,38.3 µM
same,TGI,MCF7 breast,43.7 µM
same,TGI,786-0 renal,40.1 µM
same,TGI,BT-549 breast,41.4 µM
same,TGI,LOX IMVI melanoma,45.8 µM
same,TGI,NCI-H226 lung,59.1 µM
same,TGI,CCRF-CEM leukemia,> 100 µM
same,TGI,M14 melanoma,38.9 µM
same,TGI,SN12C renal,40.3 µM
